What was measured:
Assay type in all cases: cell-based
[1] = test system: NF-κB transcriptional activity; assay: NF-κB firefly luciferase reporter assay, TNFα-stimulated cells; details: TNFα 10 ng/ml; BEAS-2B and HeLa cells with wt or deltaF508-CFTR (FIGS. 1A, B)
Protocol: All cells were transiently transfected by NF-κB firefly luciferase reporter and renilla luciferase reference. A. HeLa control cells (Ctr) were pre-treated with diluent (0.5%) or different doses of sulindac for 1 h and stimulated for 1 h with 10 ng/ml TNFα. After removal of TNFα, cells were incubated for 4 h with sulindac. Luciferase activity was analysed in protein extract. The NF-κB transcriptional activity in cells treated with sulindac+TNFα was expressed in percent of diluent+TNFα. B. Hela cells Wt, DF508 and Ctr were pre-treated with diluent (0.5%), ibuprofen (500 μM) or sulindac (500 μM) for 1 h and stimulated for 1 h with […] TNFα. After removal of TNFα, cells were incubated for 4 h with pharmacological treatment. The NF-κB transcriptional activity in cells treated with ibuprofen+TNFα and sulindac+TNFα was expressed in percent of diluent+TNFα. Results of at least three independent experiments, means±SEM. Unilateral paired t test: * p<0.02
All cells were pre-treated with diluent (0.5%), sulindac ([…]) or sulindac sulfone (250 μM) for 1 h and stimulated for 1 h with 10 ng/ml TNFα. […]
Plasmid Constructs and Transient Transfection To assay the transcriptional activity of NF-κB, pNF-κBLuc, a luciferase reporter plasmid containing five sequential NF-κB binding sites upstream of a minimum promoter element, NF-κB-Luc (Stratagene), was used. Transcriptional activity of the IL-8 promoter was evaluated with reporter constructs consisting of the IL-8 promoter (−133 bp from the transcription start site) fused to the Luciferase gene, kindly provided by Naofumi Mukaida. […]
Cells were lysed with the Passive Lysis Buffer (Promega), and luciferase activity in the cellular extracts was determined by the Dual Luciferase Assay System (Promega) using a luminometer (Tristar; Berthold). The results were normalized to those obtained with the Renilla luciferase reference plasmid used to control the transfection efficiency, and the values were expressed as luminescence intensity (Luciferase/Renilla). […]
The transcriptional activity of NF-κB and IL-8 promoter was measured as described before. […]

IL-8 secretion = assay: IL-8 release into supernatant of cell cultures; details: TNFα; Beas2B, Calu-3 and heterologous HeLa systems (FIG. 2C)
Protocol: Cells were transiently transfected by the short IL-8 promoter-firefly luciferase reporter and renilla luciferase reference and inflammation was induced by 10 ng/ml TNFα for 1 h. A. HeLa cells were pre-treated with diluent or different doses of sulindac 1 h before inflammation induction and 4 h after. IL-8 promoter activity in cells treated with sulindac+TNFα was expressed in percent of diluent+TNFα. B. After treatment, HeLa Ctr cells were lysed with TRIzol (Invitrogen). Total RNA was extracted, and 1 μg of total RNA was reverse transcribed with a reverse transcription kit. IL-8 mRNA expression was quantified by real-time quantitative PCR (qPCR). The comparative threshold cycle (CT) method was used for relative quantification of PCR products after IL-8 was normalised to TBP (ΔCt=CtIL-8−CtTBP). IL-8 mRNA data in treated samples were expressed in fold changes over controls: fold changetreated sample=2^−ΔΔCt (with ΔΔCt=ΔCtreated sample−ΔCtcontrol). C After treatment, IL-8 in supernatant was measured by ELISA. The IL-8 stimulation of cells treated with test drug +TNFα were expressed as fold compared to drug −TNFα. […]
IL-8 secretion into the supernatant of cells cultures was measured with the IMMULITE 1000 Automated Analyser (Diagnostic Products Corp) and the commercially available Immulite chemiluminescent enzyme immunometric assays (Immulite®) according to the manufacturer's instructions.

CFTR = CFTR (Homo sapiens, UniProt P13569); assay: CFTR maturation by Western blot of membrane extracts; parameters: expressed in transfected cells; details: for Ratio CFTR C/C + B (%): HeLa CFTR WT, Ctr. 65.1
CFTR, sequence (P13569 whole entry): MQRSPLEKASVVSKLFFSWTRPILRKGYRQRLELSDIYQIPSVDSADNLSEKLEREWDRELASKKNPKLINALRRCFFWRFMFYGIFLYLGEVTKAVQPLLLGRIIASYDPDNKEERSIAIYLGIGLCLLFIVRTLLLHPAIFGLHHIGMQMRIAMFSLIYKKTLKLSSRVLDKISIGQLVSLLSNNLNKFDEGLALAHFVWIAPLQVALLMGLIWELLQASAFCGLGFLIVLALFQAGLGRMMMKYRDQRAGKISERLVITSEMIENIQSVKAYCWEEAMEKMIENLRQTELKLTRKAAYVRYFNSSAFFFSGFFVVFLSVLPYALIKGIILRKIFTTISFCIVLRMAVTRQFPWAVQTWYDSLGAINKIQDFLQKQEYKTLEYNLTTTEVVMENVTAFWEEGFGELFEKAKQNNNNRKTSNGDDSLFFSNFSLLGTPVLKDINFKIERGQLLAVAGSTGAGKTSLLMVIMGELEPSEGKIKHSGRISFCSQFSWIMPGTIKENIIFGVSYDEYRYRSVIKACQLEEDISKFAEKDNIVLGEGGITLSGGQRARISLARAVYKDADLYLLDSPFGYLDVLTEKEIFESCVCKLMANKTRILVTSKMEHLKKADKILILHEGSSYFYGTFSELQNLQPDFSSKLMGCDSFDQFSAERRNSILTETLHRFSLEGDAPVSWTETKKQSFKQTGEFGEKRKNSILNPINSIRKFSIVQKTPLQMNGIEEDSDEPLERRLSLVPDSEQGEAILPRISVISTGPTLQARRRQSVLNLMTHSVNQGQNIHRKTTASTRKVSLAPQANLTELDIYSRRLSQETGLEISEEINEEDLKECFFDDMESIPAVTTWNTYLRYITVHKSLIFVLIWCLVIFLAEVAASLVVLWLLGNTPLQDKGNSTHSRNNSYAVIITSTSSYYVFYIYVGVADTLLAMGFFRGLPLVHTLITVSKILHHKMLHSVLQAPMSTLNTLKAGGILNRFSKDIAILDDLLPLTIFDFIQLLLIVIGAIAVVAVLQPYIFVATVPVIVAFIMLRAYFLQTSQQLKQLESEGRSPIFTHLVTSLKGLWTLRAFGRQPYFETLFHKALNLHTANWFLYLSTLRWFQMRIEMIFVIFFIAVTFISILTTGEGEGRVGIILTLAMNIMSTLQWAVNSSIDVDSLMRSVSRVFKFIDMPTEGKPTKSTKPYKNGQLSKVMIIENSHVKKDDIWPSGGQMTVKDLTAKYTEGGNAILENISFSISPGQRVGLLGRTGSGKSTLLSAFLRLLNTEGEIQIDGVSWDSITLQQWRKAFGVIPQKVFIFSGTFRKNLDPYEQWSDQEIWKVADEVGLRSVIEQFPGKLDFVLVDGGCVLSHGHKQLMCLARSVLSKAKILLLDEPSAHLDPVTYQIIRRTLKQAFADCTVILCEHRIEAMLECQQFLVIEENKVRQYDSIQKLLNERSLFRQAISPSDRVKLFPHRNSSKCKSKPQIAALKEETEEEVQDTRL
Protocol: B. Chloride activity in HeLa Wt cells was measured by MQAE assay, after 3 h of treatment by NSAID (500 μM) or diluent. CFTR activity was expressed in rate of UFA/sec, calculated by difference between ((Ft−F0)/t) with CFTR induction and ((Ft−F0)/t) without CFTR induction. […] C. Primary culture of human nasal epithelial cell (HNEC) grown on Snapwell filters (air-liquid interface) were exposed basolaterally to sulindac (500 μM) or vehicle for 2 h and immediately mounted into a voltage-clamp system to bioelectric measurements. Short circuit current was measured with addition of amiloride to evaluated amiloride sensitive transport or with forskolin and IBMX for induced cAMP-dependent Cl secretion.
To study the CFTR protein present at the cell membrane, a protocol of purification by differential centrifugations was used. CFTR wt and delta F508 HeLa cells (2×10^5 cells/cm^2) were lysed with hypotonic lysis buffer (10 mM de KCl, 1 mM de MgCl2, 10 mM Hepes pH 7, 4 and protease inhibitor). Mechanic lysis of cells was realized with minimum 10 strokes of a 26G syringe. Samples were centrifuged 10 min at 3000 g to eliminate cellular fragments and nuclear fraction in the pellet. Then supernatant was centrifuged 45 min at 50 000 g. The pellets with cellular membrane were resolubilized in RIPA buffer.
Aliquots of membrane cell extracts (30 μg protein) were separated by 7% SDS-PAGE and transferred on PVDF membrane. The western blots were probed with mouse monoclonal antibodies specific for CFTR (MM13-4, Millipore) 2 h at room temperature.

Ratio CFTR C/C + B (%) (CFTR; 250 μM): 77.7%
Ratio CFTR C/C + B (%) (CFTR; 500 μM): 81.5%
Compound: CC1=C(CC(=O)O)c2cc(F)ccc2/C1=C\c1ccc([S+](C)[O-])cc1 (centres unmarked) [sulindac, (Z)-5-fluoro-2-methyl-1-[p-(methylsulfinyl)benzylidene]-indene-3-acetic acid]
transcriptional activity of NF-κB [1]: inhibits transcriptional activity of NF-κB
IL-8 secretion (IL-8 secretion): decrease of IL-8 secretion
mature form of CFTR (Western blot) (CFTR; WT-CFTR HeLa cells, 500 μM): significant increase of mature form of CFTR
